Source: patent US6762052B1, “DNA sequence encoding flavin-containing monooxygenase” (priority 1993, dated 2004)

Legend:
glu158-HFMO3-MBP = biological target: T1, glu158-HFMO3-MBP (Homo sapiens, UniProt P31513); experiment: Substrate oxygenation by glu158-HFMO3-MBP fusion protein, HPLC; conditions: glu158-HFMO3-MBP, N-oxygenation
T1 sequence (P31513 2-532): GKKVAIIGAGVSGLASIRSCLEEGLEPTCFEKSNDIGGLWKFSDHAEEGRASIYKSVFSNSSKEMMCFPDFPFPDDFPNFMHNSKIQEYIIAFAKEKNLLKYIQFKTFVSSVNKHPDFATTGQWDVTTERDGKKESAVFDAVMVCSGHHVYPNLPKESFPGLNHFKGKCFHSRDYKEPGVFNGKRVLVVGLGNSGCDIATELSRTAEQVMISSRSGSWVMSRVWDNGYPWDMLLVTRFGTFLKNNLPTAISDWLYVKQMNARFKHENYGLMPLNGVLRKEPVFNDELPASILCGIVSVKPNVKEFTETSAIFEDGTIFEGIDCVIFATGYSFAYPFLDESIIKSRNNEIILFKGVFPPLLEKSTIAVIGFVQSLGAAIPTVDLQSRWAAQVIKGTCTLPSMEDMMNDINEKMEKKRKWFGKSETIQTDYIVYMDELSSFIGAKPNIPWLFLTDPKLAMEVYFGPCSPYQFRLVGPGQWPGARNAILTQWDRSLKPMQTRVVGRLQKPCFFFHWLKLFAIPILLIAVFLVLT
Experimental: For HFMO3-MBP assay, all HFMO3-MBP incubations were done as follows: Into a test tube was added DETAPAC (1.2 mM, final concentration for a 250 μl reaction) followed by the addition of 60 μl NADPH generating system (0.4 mM NADP, 0.4 mM glucose-6-phosphate, and 20 μl of a 50 units mI^−1 glucose-6-phosphate dehydrogenase). The tube was chilled on ice and buffer and enzyme were added as described below for individual experiments to give a volume of 240 μl. The incubation was initiated by the addition of 5-DTP (10 μl of 5 mM) and placed in a shaking water bath at 37° C. for 10 min (unless specified otherwise). The incubation was stopped by the addition of 1.0 ml of ice-cold CH2Cl2. Following the addition of sodium carbonate (approx. 20 mg), the culture tube was vortexed, centrifuged (2000×g, 10 min), and the organic layer was removed and transferred to a 1.5 ml microfuge tube. The organic solvent was evaporated under a stream of Ar(g) to dryness and the residue was taken up in MeOH (300 μl) for determination HPLC analysis.
Data was analyzed with a Hitachi D-2500 integrator.
MTS-oxygenation assays were carried out under the same buffer, temperature, time and volume conditions, as for the N-oxygenation assays. The reactions were initiated upon addition of 10 μl of a 5 mM solution of MTS. The reaction was quenched with the addition of 700 μl of 80% CH3CN:20% hexane then 20 mg NaCl(s) and vortexed vigorously for 10 sec. The quenched reactions were then centrifuged briefly to separate the phases. The organic layer, containing product and substrate, was removed and used directly for HPLC analysis.
All other instruments used were the same as above for the N-oxygenation reactions. Conditions for elution were 50% CH3CN/H2O (v:v) with a flow rate gradient as follows: 1.5 ml min^−1 from 0 to 4 min., 1.5-2.5 ml min^−1 from 4 to 5 min, 2.5 ml min^−1 from 5 to 15 min.
Trimethylamine is commonly ingested in foodstuffs or it is available in the diet of humans from choline and other sources. Trimethylamine (TMA) is exclusively eliminated in humans by metabolism to trimethylamine N-oxide (TMANO). […]

Human Liver Microsomes = experiment: in vitro

**Q.** For CN(C)CCCCCN1c2ccccc2Sc2ccc(C(F)(F)F)cc21 [Compound 5], which Km (glu158-HFMO3-MBP) is on record?
**A.** 108 µM

**Q.** And the Vmax (glu158-HFMO3-MBP; Lineweaver-Burke analysis)?
**A.** 15.8 nmole/min/nmol of flavin

**Q.** And the Km (Human Liver Microsomes)?
**A.** 6.8 µM

**Q.** What about the “N-oxide formation, Human Liver Microsomes” value (Human Liver Microsomes) of the same compound?
**A.** 252.1 ± 38.6 pmol/min/mg of protein

**Q.** What about the “S-oxide formation, Human Liver Microsomes” value (Human Liver Microsomes) of the same compound?
**A.** 32.5 ± 33.7 pmol/min/mg of protein

**Q.** And the “Vmax, Human Liver Microsomes” value (Human Liver Microsomes)?
**A.** 0.098 nmol/min/mg of protein
